According to patent US20200352947A1, “USE OF SEROTONERGIC DRUGS TO TREAT VIRUS-INDUCED THROMBOCYTOPENIA” (NATIONAL UNIVERSITY OF SINGAPORE, priority 2017, published 2020):

Legend:
DENV2-infected mice [1] = assay: Platelet counts and platelet activation in DENV2-infected mice pretreated with fluoxetine; type: in vivo; details: fluoxetine 20 mg/kg/day in drinking water for 2 weeks, then 10^6 pfu DENV2 IP; 24 and 72 hours; n=5
Method: Mice were administered fluoxetine (20 mg/kg/day) or vehicle via drinking water for 2 weeks. Mice were then infected with 10^6 pfu of DENV2 intraperitoneally. At 24 and 72 hours, blood was collected and platelet counts were measured. The reduction in platelet counts and increased platelet activation induced by DENV was prevented by fluoxetine treatment (n=5). Mean values are presented and error bars represent the SEM. P values were determined by one-way ANOVA; *P<0.05, **P<0.01, ***P<0.001, ****P<0.0001.
Fluoxetine, an SSRI, prevents the uptake of serotonin into platelets. Activation of platelets by DENV (FIG. 3), will result in the release of stored serotonin, which can act in a positive feedback loop. Mice were treated with fluoxetine (20 mg/kg/day) or vehicle in drinking water for 2 weeks and infected with 10^6 pfu of DENV IP. At 24 and 72 hours, blood was collected and platelet counts were measured. The reduction in platelet counts and increased platelet activation induced by DENV was inhibited by fluoxetine treatment (FIG. 15).

DENV2-infected mice [2] = assay: Platelet counts (thrombocytopenia) in DENV2-infected WT mice; type: in vivo; details: mice, 10^6 pfu DENV2 IP; WAY-100135 3 mg/kg, ketanserin 8 mg/kg or sarpogrelate 3 mg/kg; 24 hours post-infection; n=5
Method: Platelet counts of DENV2 infected mice. Mice were infected via intraperitoneal route (IP) with 10^6 plaque forming units (pfu) and were given either vehicle (1% DMSO) or ketanserin 8 mg/kg IP. Blood was taken via cheek bleed 24 hours post-infection and platelet counts were measured using an automated hematology analyzer. DENV2 infection induces thrombocytopenia, but ketanserin treatment is able to prevent thrombocytopenia (n=5). Mean values are presented and error bars represent the SEM. P values were determined by Student's unpaired t test; ***P<0.001, ****P<0.0001.
Platelet counts of DENV2 infected mice. Mice were infected IP with 10^6 pfu of DENV2 and were given either vehicle, the 5HT1A antagonist WAY-100135, or either of the 5HT2A antagonists, ketanserin and sarpogrelate. Blood was taken via cheek bleed 24 hours post-infection and platelet counts were measured using an automated hematology analyzer. DENV2 infection induced thrombocytopenia that was able to be prevented through administration of serotonin receptor antagonists (n=5). Mean values are presented and error bars represent the SEM. P values were determined by one-way ANOVA; ***p<0.001, ****P<0.0001.
WT mice were infected via intraperitoneal route (IP) with 10^6 plaque forming units (pfu) of DENV2 and were given either vehicle (1% DMSO) or ketanserin (8 mg/kg) IP. Blood was taken via cheek bleed 24 hours post-infection and platelet counts were measured using an automated hematology analyzer.
One limitation of the experimental protocol in Examples 10 and 11 is that the vehicle used to deliver ketanserin in mice, DMSO, can itself interfere with platelet aggregation [Rosenblum, W. I. & El-Sabban. F. Stroke 13, 35-39 (1982)]. This difference can be observed by comparing the severity of thrombocytopenia in dengue-infected mice between FIGS. 1 and 10. Accordingly, newer serotonin receptor antagonists that are more soluble in saline were tested, to determine whether a similar effect is seen even without the confounding effects of DMSO. Mice were infected IP with 10^6 pfu of DENV2 and were given either vehicle, the 5HT1A antagonist WAY-100135 (3 mg/kg), or one of the 5HT2A antagonists ketanserin (8 mg/kg) or sarpogrelate (3 mg/kg). Blood was taken via cheek bleed 24 hours post-infection and platelet counts were measured using an automated hematology analyzer.

DENV2-infected Sash mice = assay: Exogenous serotonin in DENV2-infected mast cell-deficient (Sash) mice; type: in vivo; details: serotonin 150 mg/kg daily
Method: (A) Sash mice were infected with DENV2 and treated with 150 mg/kg of serotonin or vehicle daily. Blood was taken for analysis 3 days post-infection. […] (C) Representative eosin and methylene blue staining of peripheral blood smears day 3 post-infection. Some individual platelets are indicated by arrows. Platelet aggregates are surrounded by a dashed line. Scale bar=25 μm. Means are presented with error bars representing the SEM. P values were determined by Student's unpaired t test; ns: non-significant, **P<0.01, ***P<0.001.

human platelets = assay: Platelet activation (CD41/CD62P flow cytometry) in stimulated human whole blood; type: cell-based; details: 15 min stimulation; CD41/CD62P flow cytometry; n=4
Method: (A) Whole blood from healthy human volunteers was isolated and stimulated with DENV2, serotonin, or DENV2+serotonin for 15 min. Cells were then fixed and stained for platelet markers CD41 and CD62P and analyzed by flow cytometry. DENV raised the activation levels of platelets. […] (B) Human whole blood was stimulated with DENV2, mast cells (MCs) or DENV2+MCs in the presence of vehicle or ketanserin (100 nM or 500 nM) for 15 min prior to assessment of platelet activation. […] Mean values are presented and error bars represent the SEM. P values were determined by one-way ANOVA; *P<0.05, ** P<0.01, ***P<0.001, ****P<0.0001, ns: non-significant.
Additionally, products from DENV-stimulated human mast cells promoted platelet activation, dependent on platelet 5HT2A receptor, since this effect was abolished by ketanserin (FIG. 9B). […] Furthermore, ketanserin is effective in reversing DENV-induced human platelet activation.

DENV2-infected WT mice = assay: Exogenous serotonin in DENV2-infected and uninfected WT mice; type: in vivo; details: serotonin 150 mg/kg daily
Method: (A) WT mice were infected with DENV2 (1×10^6 pfu i.p.) and treated with 150 mg/kg of serotonin or vehicle daily. […] (B) Blood of DENV infected mice treated with serotonin or vehicle was isolated and stained for platelet marker CD41 and activation marker CD62P and analyzed by flow cytometry. […] (C) Representative peripheral blood smears, day 3 post-infection, show platelet aggregation (dashed lines), which was more visually apparent following exogenous serotonin treatment compared to DENV infection. Some individual platelets are indicated by arrows. Scale bar=25 μm. Mean values are presented and error bars represent the SEM. P values were determined by Student's unpaired t test; *P<0.05, ns: non-significant.
WT mice were infected with DENV and administered exogenous serotonin to determine if there was an increase in platelet activation mediated by serotonin and if this would worsen thrombocytopenia in vivo.

Question: Which “increased platelet activation induced by DENV” value (DENV2-infected mice [1]) does the source give for `CNCCC(Oc1ccc(C(F)(F)F)cc1)c1ccccc1` (stereo not shown) [fluoxetine] here?
Answer: Its value is “inhibited”.

Question: What about the “reduction in platelet counts induced by DENV” value (DENV2-infected mice [1]) of the same molecule?
Answer: Its value is “inhibited”.

Question: Which “platelet counts (DENV2-induced thrombocytopenia)” value (DENV2-infected mice [2]) does the source give for `COc1cccc(CCc2ccccc2OCC(CN(C)C)OC(=O)CCC(=O)O)c1` (stereo not shown) [sarpogrelate, 4-[1-(dimethylamino)-3-[2-[2-(3-methoxyphenyl)ethyl]phenoxy]propan-2-yl]oxy-4-oxobutanoic acid] here?
Answer: Its value is “prevented”.

Question: `NCCc1c[nH]c2ccc(O)cc12` [serotonin] was tested. Which circulating platelet counts (DENV2-infected Sash mice; 3 days post-infection) did it give?
Answer: The circulating platelet counts was “significantly reduced circulating platelet counts compared to vehicle (mock)-treated animals”.

Question: And the platelet activation (DENV2-infected Sash mice; 3 days post-infection, n=5-8)?
Answer: Its platelet activation is “increased platelet activation in infected mice compared to vehicle treated controls”.

Question: What about the “platelet aggregates in peripheral blood films” value (DENV2-infected Sash mice; day 3 post-infection) of the same molecule?
Answer: Its value is “increased platelet aggregates”.

Question: What about the “platelet activation in human whole blood stimulated with DENV2+serotonin” value (human platelets) of the same molecule?
Answer: The value was “significantly enhanced platelet activation over control and DENV groups”.

Question: What about the “platelet aggregates in peripheral blood films” value (DENV2-infected WT mice; DENV2-infected WT mice, day 3 post-infection) of the same molecule?
Answer: Its value is “platelet aggregates increased”.

Question: What about the “platelet activation (CD41/CD62P) in infected mice” value (DENV2-infected WT mice; DENV2-infected WT mice, n=6-12) of the same molecule?
Answer: Its value is “further increased”.

Question: What about the “platelet counts (thrombocytopenia) in infected mice” value (DENV2-infected WT mice; WT mice, DENV2 1×10^6 pfu i.p., 3 days post-infection) of the same molecule?
Answer: Its value is “worsened thrombocytopenia during DENV infection compared to vehicle-treated mice”.

Question: And the “platelet activation (CD41/CD62P) in uninfected mice” value (DENV2-infected WT mice; uninfected WT mice)?
Answer: Its value is “did not result in platelet activation in uninfected mice”.

Question: What about the “platelet counts in uninfected mice” value (DENV2-infected WT mice; uninfected WT mice) of the same molecule?
Answer: The value was “did not affect platelet counts in uninfected WT mice”.

Question: How did the “platelet counts (DENV2-induced thrombocytopenia)” value (DENV2-infected mice [2]) turn out when `COc1ccccc1N1CCN(C[C@@H](C(=O)NC(C)(C)C)c2ccccc2)CC1` [WAY-100135, (S)-N-tert-butyl-3-(4-(2-methoxyphenyl)-piperazin-1-yl)-2-phenylpropanamide] was run?
Answer: Its value is “prevented”.
